How the values were obtained:
Assay type in all cases: cell-based, human
NOS in HUVEC = test: Mechanism study: NOS Activity Assay Kit with NOS and Sirt1 inhibitors; details: Saikosaponin C 20 μM, 33 mM high glucose 36 hours
Method: (§1) Similar to Experimental Example 1, a high-fat diet evaluation system at the cellular level was established. Specifically, […], which are vascular endothelial cells, were pretreated with Saikosaponin C at a concentration of 20 μM for 2 hours, and then treated with high glucose at a concentration of 33 mM for 72 hours (for SA-β-gal staining) or 36 hours (for the analysis of enzyme activity of NOS and Sirt1). Then, SA-β-gal staining, NOS enzyme activity, and Sirt1 enzyme activity were analyzed. To analyze whether or not NOS and Sirt1 protein are involved in the anti-vascular aging effect of Saikosaponin C and the relationship between NOS and Sirt1 protein, L-NG-nitro arginine methyl ester (L-NAME) (5 mM), an inhibitor of NOS, and EX-527 (10 μM), an inhibitor of Sirt1 protein, were used. […] The senescence of vascular endothelial cells was assessed through intracellular SA-β-gal staining (FIG. 8A). The activities of NOS (FIG. 8B) and Sirt1 protein (FIG. 8C) were measured using the NOS Activity Assay Kit and the Sirt1 Activity Assay Kit, respectively.

HUVEC = test: Mechanism study: SA-β-gal staining with NOS and Sirt1 inhibitors; details: Saikosaponin C 20 μM, 33 mM high glucose 72 hours
Method: as §1

Sirt1 in HUVEC = test: Mechanism study: Sirt1 Activity Assay Kit with NOS inhibitor; details: L-NAME 5 mM, Saikosaponin C 20 μM, 33 mM high glucose 36 hours
Method: as §1

Compound: NC(=O)C1CCCc2c1[nH]c1ccc(Cl)cc21 (centres unmarked) [EX-527]
- Saikosaponin C-mediated recovery of the reduction in NOS activity caused by high glucose (NOS in HUVEC; EX-527 10 μM): abolished
- anti-vascular aging effect of Saikosaponin C (SA-β-gal) after inhibitor pretreatment (HUVEC; EX-527 10 μM): significantly abolished

Compound: COC(=O)[C@@H](N)CCCNC(=N)N[N+](=O)[O-] [L-NAME, L-NG-nitro arginine methyl ester]
- Saikosaponin C-mediated recovery of the reduction in NOS activity caused by high glucose (NOS in HUVEC; L-NAME 5 mM): abolished
- Saikosaponin C-mediated recovery of the reduction in Sirt1 activity caused by high glucose (Sirt1 in HUVEC): did not abolish
- anti-vascular aging effect of Saikosaponin C (SA-β-gal) after inhibitor pretreatment (HUVEC; L-NAME 5 mM): significantly abolished

Reference: patent publication US20250177425A1, “SAIKOSAPONIN C AS COMPOSITION FOR TREATING OR PREVENTING AGE-RELATED VASCULAR DISEASES INCLUDING ARTERIOSCLEROSIS” (AGINGTARGET, INC., priority 2022, published 2025)
